Data from ChEMBL document CHEMBL1125332, “Synthesis and biological evaluation of 5'-sulfamoylated purinyl carbocyclic nucleosides” (J Med Chem, 1992).
Values after ≈ are worked out from the molar mass of the structure shown.

System: P388
Test: Cytotoxicity against P388 mouse leukemia cells
Format: functional, cell-based

`CN(C)c1ncnc2c1ncn2C1CC(COS(N)(=O)=O)C(O)C1O` (centres undefined) gave an IC50 of 74 µg/mL (≈ 199 µM).
For `Nc1ncnc2c1ncn2COCCOS(N)(=O)=O`, the IC50 was > 100 µg/mL.
`Nc1ncnc2c1nnn2C1CC(CO)C(O)C1O` (centres undefined) gave an IC50 of 0.5 µg/mL (≈ 1.88 µM).
`CSc1ncnc2c1ncn2C1CC(COS(N)(=O)=O)C(O)C1O` (centres undefined) showed an IC50 of 50 µg/mL (≈ 133 µM).
Work on `CNc1ncnc2c1ncn2C1CC(COS(N)(=O)=O)C(O)C1O` (centres undefined) yielded an IC50 of 4 µg/mL (≈ 11.2 µM).
With `Nc1ncnc2c1nnn2C1CC(COS(N)(=O)=O)C(O)C1O` (centres undefined) the IC50 was 0.0625 µg/mL (≈ 0.181 µM).
In the case of `Nc1ncnc2c1ncn2C1CC(COS(N)(=O)=O)C(O)C1O` (centres undefined), the IC50 is reported as 0.125 µg/mL (≈ 0.363 µM).
For `Nc1ncnc2c1ncn2[C@@H]1C[C@H](CO)[C@@H](O)[C@H]1O` [ARISTEROMYCIN], the IC50 was 0.5 µg/mL (≈ 1.88 µM).
Molecule `COc1ccc(C[C@H](N)C(=O)N[C@H]2[C@@H](O)[C@H](n3cnc4c(N(C)C)ncnc43)O[C@@H]2CO)cc1` [PUROMYCIN] has an IC50 of 0.5 µg/mL (≈ 1.06 µM).
